Key:
[1] = tested on: streptozotocin (STZ) induced type II diabetes in Wistar Han rats; assay: Glycemic control in streptozotocin-induced diabetic rats (Examples 103, 105); type: in vivo, rat
Experimental: The present example provides the ability of Compound 10 to restore glycemic control to streptozotocin (STZ) induced type II diabetes in Wistar Han rats. Fahmy et al., 2017, World J. Pharm. Med. Res. 3(3):37-39.
Control and test compounds were stored at 4° C. and prepared weekly as needed. The vehicle for positive control pioglitazone was 0.25% carboxymethylcellulose and 1% Tween® 80 in reverse osmosis deionized water. The vehicle for Compound 10 was 10% DMSO, 10% Solutol HS 15, and 80% (10% hydroxypropyl-β-cyclodextrin in 50 mM citrate buffer at pH 3.0). The vehicle for streptozotocin pretreatment was 0.1 M sodium citrate pH 4.5.
On Day −3, twenty-four Wistar Han rats (plus eight spare Wistar Han rats) were measured for body weight and non-fasting glucose. Starting on Day −42, D12451 Research Diet was provided ad libitum throughout the study, except during designated procedures, as was water. In order to minimize the effects of stress on blood glucose and body, all animals including the spares received daily sham doses with phosphate buffered saline pH 7.2 (dose volume 5 mL/kg) via gavage beginning on Study Day −5 to Day −1. 20% Glucose in drinking water (200 g/L) was provided ad libitum for 24 hr after streptozotocin injection on Day −14 and Day −7.
On Days −14 and −7, streptozotocin was administered at 30 mg/kg/day QD intraperitoneally. Starting on Day 1, control and test compound were administered on the following schedule.
On Days −7 to −1 and on Days 1, 8, and 14 non-fasting blood glucose was measured. On Day 15, an oral glucose tolerance test was administered. The animals were weighed and the animals were placed in clean cages without food. Access to water was provided throughout the procedure. The animals were fasted for five hours and a blood glucose measurement was determined. The animals were dosed via oral gavage with 2 g/kg glucose (10 mL/kg). Blood glucose was determined via venipuncture. The second drop of blood from the animal was placed on a hand-held glucometer (Abbott Alpha Trak) at the following times relative to the glucose dose: zero (just prior to glucose dose), 15, 30, 60, 90, and 120 min. Following the final blood glucose measurement, food was returned to the cages. On Day 17, 4-hour fasting glucose was measured. Serum samples were used to measure insulin by ELISA. Analysis was performed in one to three days of each collection. On Day 17, terminal blood collection was obtained at about 8 mL per animal and measured for blood glucose.
ZDF rats were treated daily with Compound 10, vehicle, or pioglitazone for sixteen days and monitored for an additional two weeks post-treatment until Day 29. STZ rat models were induced through pre-treatment of animals on a high-fat diet with low doses of streptozotocin at Day −14 and Day −7 prior to starting treatment at Day Zero until Day 16. ZDF and STZ rats were monitored for fasting blood glucose levels, oral glucose tolerance test (OGTT), insulin and C-peptide levels, HOMA-IR (Homeostatic Model Assessment of Insulin Resistance), blood lipemic levels, and body weight according to the schematic for each model below. ZDF rats were analyzed for indicated readouts for fifteen days post-treatment for OGTT at Day 29, and serum insulin and C-peptide at Day 31.
STZ Rat Model—three treatment groups 1. Vehicle; 2. Compound 10 at 175 mg/kg; and 3. Pioglitazone at 30 mg/kg; n=10 per group. […] Rats were monitored for the following parameters through dosing—body weight, blood glucose levels, and OGTT.

MM cell lines = assay: MM cell line proliferation (Cell Titer Glo, four days); type: cell-based
Experimental: Compound A was tested against a THL cell line (VAL), and a DEL cell line (U2932). An expanded panel of DHL cell lines were tested for sensitivity to Compound A. Ex vivo patient samples of THL and MYC-amplified DLBCL were tested with Compound A. Sensitivity of THL and MYC-driven DLBCL in both in vitro and ex vivo models were compared with clinical reversible menin inhibitors. Compound A was tested against a panel of MM cell lines and ex vivo MM patient samples of p53del, 13qdel, and relapsed/refractory cases.
DLBCL cell line TOLEDO was cultured in the presence of Compound A or clinical reversible menin inhibitors for six and fourteen hours. Menin protein expression was reduced up to 60% at 1 μM by Compound A after fourteen hours compared to clinical reversible inhibitors at <20% at similar concentrations. Menin protein expression was measured by the Wes system and analyzed using the Compass software (automated western blotting, Protein Simple). Signal was normalized to GAPDH and referenced to DMSO control (FIG. 171E). DLBCL and MM cell lines were cultured with Compound A, bortezomib (PS-341), or DMSO for four days and cell proliferation was measured by Cell Titer Glo. Ex vivo studies of DLBCL and MM models were conducted by measurement of cell proliferation (Cell Titer Glo) after six days of treatment with Compound A, PS-341, or DMSO control.

Q: For `C=CC(=O)N[C@@H]1CCCN(Cc2ccnc(C(=O)Nc3ccc(-c4cc5c(N6CCOCC6)ncnc5[nH]4)cc3)c2)C1` [Compound A, N-[4-[4-(4-morpholinyl)-7H-pyrrolo[2,3-d]pyrimidin-6-yl]phenyl]-4-[[3(R)-[(1-oxo-2-propen-1-yl)amino]-1-piperidinyl]methyl]-2-pyridinecarboxamide], which blood lipemic levels ([1]; STZ rats) is on record?
A: The blood lipemic levels was “Significant reductions”.

Q: And the body weight ([1]; STZ rats)?
A: The body weight was “Significant reductions”.

Q: And the “oral glucose tolerance test, glucose control” value ([1]; STZ rats, after fifteen days of treatment)?
A: The value was “significant glucose control”.

Q: What about the “insulin in the non-fasting state” value ([1]; STZ-induced diabetes model) of the same compound?
A: The value was “significant reduction”.

Q: And the non-fasting glucose ([1]; STZ-induced diabetes model, compared to vehicle and control)?
A: The non-fasting glucose was “sharp reduction”.

Q: What about the cell lethality (MM cell lines) of the same compound?
A: The cell lethality was > 99%.
